Assay results reported in patent US11090271B2, “Soft gelatin capsules containing hydroxypropyl beta cyclodextrin with high stability” (ALTERGON S.A., priority 2017, dated 2021).

Columns and labels:
[1] = Storage stability of aqueous diclofenac solutions complexed with HPBCD (colour); assay type: physicochemical
Protocol: Occasionally the complexation in cyclodextrin has been carried out to protect the active ingredients from degradation phenomena, however with modest results (International Journal of Photoenergy, 3, 2001, 205-211). […] Finally, storage stability tests were carried out with various aqueous solutions of diclofenac sodium entirely complexed with hydroxypropyl beta ciclodextrin (HPBCD), having the following composition: diclofenac sodium 40.6 mg; HPBCD 177.6 mg; purified water 782.4 mg.

[2] = Water solubility of the active ingredient at room temperature; assay type: physicochemical; details: room temperature (20° C.)
Protocol: In a further embodiment, the active ingredient is a water-soluble one, i.e. it has a water solubility at room temperature (20° C.) higher than 0.1% w/v, preferably higher than 0.5% w/v, or more preferably higher than 1% w/v. […] According to this embodiment, the present invention is characterized as a soft gelatin capsule having inside a fill comprising a water-soluble active ingredient containing nitrogen, wherein the wall of said capsule comprises hydroxypropyl beta cyclodextrin (HPBCD) in an amount being: (a) less than 10% by weight on the weight of the wall and (b) sub-stoichiometric to form an inclusion complex with the active ingredient present in the fill.

Q: With O=C(O)Cc1ccccc1Nc1c(Cl)cccc1Cl [diclofenac sodium] as the compound, how does the “colour of the solution” value ([1]; aqueous solution entirely complexed with HPBCD, 18 months at 30° C. and 65% R.H.) read?
A: evident amber colour

Q: For diclofenac epolamine [DHEP], which water solubility [2] is on record?
A: about 1.9 % w/v

Q: Which “colour of the solution” value ([1]; aqueous solution complexed in HPBCD, storage at 25° C.±2° C., 60±5% R.H.) does the source give for O=C(O)Cc1ccccc1Nc1c(Cl)cccc1Cl [diclofenac] here?
A: amber colour
